Source: patent EP0052238B1, “A new vincamine derivative, a method for its preparation and pharmaceutical compositions containing it” (MEDEA RESEARCH S.r.l., priority 1980, dated 1982)

Experiments:
[1] = test system: smooth musculature of the isolated ileum of rabbits, made hypertonic by serotonin; assay: Myorelaxing effect on isolated ileum made hypertonic by serotonin; settings: isolated rabbit ileum, relative to vincamine
Excerpt: (§1) The myorelaxing effect of MR 711 and vincamine has been investigated on the smooth musculature of the isolated ileum of rabbits, made hypertonic by sodium ions or serotonin.

[2] = test system: smooth musculature of the isolated ileum of rabbits, made hypertonic by sodium ions; assay: Myorelaxing effect on isolated ileum made hypertonic by sodium ions; settings: isolated rabbit ileum, relative to vincamine
Excerpt: as §1

[3] = Acute toxicity in mice (LD50, Lichtfield and Wilcoxon); settings: mouse, in vivo, ip
mice = assay: Protective action on the mortality by hypobaric hypoxia; type: in vivo; settings: intravenous route, 25.6 mg/kg; for Survival time: pressure reduced until 190 mm Hg; for % Variation: survival time versus controls

In the case of CCC12C=C(C(=O)OCOC)n3c4c(c5ccccc53)CCN(CCC1)C42 (centres unmarked) [MR 711, 13a-ethyl-2,3,5,6,13a,13b-hexahydro-1 H-indolo[3,2,1-de]pyrido[3,2,1-ij]-[1,5]naphthyridine-12-methoxymethylcarboxylate], the “activity in inhibiting the serotonin induced contractions, higher than the corresponding activity displayed by vincamine” value [1] is reported as 70%, the “activity in inhibiting the sodium ions induced contractions, higher than the corresponding activity displayed by vincamine” value [2] is reported as 46% and the LD50 [3] is reported as 580 mg/kg. The Survival time (mice) was 262.9 ± 31.4 s and the “% Variation” value (mice) was “+263%”.
With CC[C@]12CCCN3CCc4c(n(c5ccccc45)[C@@](O)(C(=O)OC)C1)[C@@H]32 [Vincamine] the LD50 [3] was 195 mg/kg, the Survival time (mice) was 213.3 ± 37.9 s and the “% Variation” value (mice) was “+194%”.
